Assay [1] relates to Staphylococcus aureus. As to the kind of experiment: Antibacterial activity against Staphylococcus aureus ATCC 25925 by broth microdilution method. It is filed as functional.
Assay [2] relates to Bacillus subtilis. The experiment in a line: Antibacterial activity against Bacillus subtilis ATCC 63501 by broth microdilution method. It is filed as functional. In general terms: Dilution methods test growth across graded concentrations, often in twofold steps.
For assay [3], the system named is Staphylococcus aureus. The experiment in a line: Antibacterial activity against drug-resistant Staphylococcus aureus by broth microdilution method. The class given is functional.
Assay [4] relates to Pseudomonas aeruginosa. As to the kind of experiment: Antibacterial activity against Pseudomonas aeruginosa ATCC 25916 by broth microdilution method. The class given is functional.
The subject of assay [5] is Escherichia coli. The experiment in a line: Antibacterial activity against Escherichia coli ATCC 25922 by broth microdilution method. The class given is functional.
The test system of assay [6] is Escherichia coli. The experiment in a line: Antibacterial activity against drug-resistant Escherichia coli by broth microdilution method. It is filed as functional.
The subject of assay [7] is Mycobacterium tuberculosis. As to the kind of experiment: Antibacterial activity against Mycobacterium tuberculosis H37Rv ATCC 27294 incubated […]. It is filed as functional.
Assay [8] deals with Bacillus subtilis. As to the kind of experiment: Antibacterial activity against Bacillus subtilis ATCC […] incubated for 16 hrs. The class given is functional.
Assay [9] has as its system Bacillus subtilis. The experiment in a line: Antibacterial activity against Bacillus subtilis CMCC63501. It is filed as functional.
Assay [10] has as its system Staphylococcus aureus. As to the kind of experiment: Antibacterial activity against methicillin-resistant Staphylococcus aureus ATCC 43300. The class given is functional.
The test system of assay [11] is Staphylococcus aureus. As to the kind of experiment: Antibacterial activity against Staphylococcus aureus […]. It is filed as functional.
For assay [12], the system named is Bacillus anthracis. The experiment in a line: Antibacterial activity against Bacillus anthracis UM23C1-1 by microplate assay. It is filed as functional.
Assay [13] relates to Staphylococcus aureus. The experiment in a line: Antibacterial activity against Staphylococcus aureus ATCC 13709 by microplate assay. It is filed as functional.
Assay [14] concerns Enterococcus faecalis. As to the kind of experiment: Antibacterial activity against Enterococcus faecalis ATCC 29212 by microplate assay. It is filed as functional.
Assay [15] has as its system Streptococcus pneumoniae. The experiment in a line: Antibacterial activity against Streptococcus pneumoniae ATCC 51916 by microplate assay. It is filed as functional.
Assay [16] has as its system Staphylococcus aureus. The experiment in a line: Antibacterial activity against methicillin-resistant Staphylococcus aureus infected in CD1 mouse assessed as mouse survival rate at 10 mg/kg. The class given is functional.
The test system of assay [17] is Staphylococcus aureus. As to the kind of experiment: Antibacterial activity against methicillin-sensitive Staphylococcus aureus. It is filed as functional.
Assay [18] has as its system Moraxella catarrhalis. As to the kind of experiment: Antibacterial activity against Moraxella catarrhalis. It is filed as functional.
The subject of assay [19] is Staphylococcus aureus. The experiment in a line: Antibacterial activity against community associated methicillin-resistant Staphylococcus aureus incubated for 18 to 20 hrs by microbroth dilution method. The class given is functional.
For assay [20], the system named is Staphylococcus aureus. The experiment in a line: Antibacterial activity against hospital associated methicillin-resistant Staphylococcus aureus incubated for 18 to 20 hrs by microbroth dilution method. The class given is functional.
Assay [21] relates to Streptococcus pyogenes. The experiment in a line: Antibacterial activity against Streptococcus pyogenes incubated for 18 to 20 hrs by microbroth dilution method. The class given is functional.
Assay [22] concerns Streptococcus agalactiae. The experiment in a line: Antibacterial activity against Streptococcus agalactiae incubated for 18 to 20 hrs by microbroth dilution method. The class given is functional.
Assay [23] relates to Enterococcus faecalis. The experiment in a line: Antibacterial activity against Enterococcus faecalis incubated for 18 to 20 hrs by microbroth dilution method. It is filed as functional.
Assay [24] relates to Moraxella catarrhalis. The experiment in a line: Antibacterial activity against Moraxella catarrhalis incubated for 18 to 20 hrs by microbroth dilution method. The class given is functional.
For assay [25], the system named is Haemophilus influenzae. As to the kind of experiment: Antibacterial activity against Haemophilus influenzae incubated for 18 to 20 hrs by microbroth dilution method. The class given is functional.
Assay [26] deals with Enterococcus faecium. The experiment in a line: Antibacterial activity against Enterococcus faecium CCUG 37832 incubated for 18 hrs by WST1 assay. Conditions: CCUG 37832, 18 h. The class given is functional. For orientation: Tetrazolium assays rely on reduction of a dye to a coloured formazan, in cell work by metabolically active cells.
Assay [27] deals with Enterococcus faecium. As to the kind of experiment: Antibacterial activity against Enterococcus faecium CTC 492 incubated for 18 hrs by WST1 assay. To be noted: CTC 492, 18 h. It is filed as functional.
The subject of assay [28] is Staphylococcus aureus. As to the kind of experiment: Antibacterial activity against methicillin-resistant Staphylococcus aureus. It is filed as functional.
Assay [29] deals with Escherichia coli. As to the kind of experiment: Antibacterial activity against Escherichia coli. The class given is functional.
Assay [30] concerns Enterococcus faecalis. The experiment in a line: Antibacterial activity against Enterococcus faecalis ATCC 19433 by broth microdilution assay. It is filed as functional.
For assay [31], the system named is Haemophilus influenzae. As to the kind of experiment: Antibacterial activity against Haemophilus influenzae ATCC 49247 by broth microdilution assay. The class given is functional.
Assay [32] has as its system Escherichia coli. The experiment in a line: Antibacterial activity against Escherichia coli D21f2tolC by broth microdilution assay. It is filed as functional.
A short description of assay [33]: Inhibition of Staphylococcus aureus RNA polymerase.
A short description of assay [34]: Inhibition of Escherichia coli RNA polymerase.
Assay [35] relates to Staphylococcus aureus. The experiment in a line: Antibacterial activity against methicillin-resistant Staphylococcus aureus by CLSI method. The class given is functional.
The subject of assay [36] is Enterococcus. The experiment in a line: Antibacterial activity against Enterococcus VRE-CUS by CLSI method. The class given is functional.
The test system of assay [37] is Enterococcus. As to the kind of experiment: Antibacterial activity against Enterococcus VRE-WMC by CLSI method. It is filed as functional.
Assay [38] deals with Moraxella catarrhalis. The experiment in a line: Antibacterial activity against Moraxella catarrhalis ATCC 25238 by CLSI method. It is filed as functional.
Assay [39] relates to Clostridioides difficile. The experiment in a line: Antibacterial activity against Clostridioides difficile BI/NAP1/O27 by agar dilution method. The class given is functional. (In agar dilution the substance is mixed into plates at graded concentrations.)
The test system of assay [40] is Escherichia coli. As to the kind of experiment: Antibacterial activity against Escherichia coli by CLSI method. The class given is functional.
For assay [41], the system named is Pseudomonas aeruginosa. As to the kind of experiment: Antibacterial activity against Pseudomonas aeruginosa ATCC 27853 by CLSI method. The class given is functional.

The structures appear in SMILES notation. pIC50: −log10 of the molar value. Converted amounts (≈) assume the structure as drawn. Where a SMILES comes first, the peptide text is derived from it. Bridges are numbered along the chain shown (N, C = ends). [ ]: non-standard residue; d: D form. The star is where a group is joined. ξ: configuration not given here. NMeLeu(3ξ-Me) = CN[C@H](C(=O)O)C(C)C(C)C; d(cisHyp) = O=C(O)[C@H]1C[C@@H](O)CN1; Picolinoyl(3-OH) = O=C(c1ncccc1O)*; NMePhg = CN[C@H](C(=O)O)c1ccccc1; Sar = CNCC(=O)O A value given as a limit tells only on which side of the number the result lay.

By pIC50 is commonly meant −log10 of the IC50, conventionally taken in molar units. Read a low pIC50 as a large IC50.

For `C[C@@H]1C/C=C2\SC[C@@H](NC(=O)c3coc(n3)C[C@@H](O)C[C@H](O)/C=C/C=C/CNC2=O)C(=O)O1`, the MIC in [1] was 8 to 16 µg/mL (≈ 16.8 to 33.5 µM); in [2], 8 to 16 µg/mL (≈ 16.8 to 33.5 µM); in assay [3], 8 to 16 µg/mL (≈ 16.8 to 33.5 µM); in assay [4], 32 µg/mL (≈ 67 µM); in [5] it was 32 µg/mL (≈ 67 µM); in assay [6] it was 32 µg/mL (≈ 67 µM).
Consider `COC(=O)N[C@H]1[C@@H](C)O[C@@H](O[C@H]2C/C=C(\C)[C@@H]3C=C[C@@H]4[C@@H](O[C@H]5C[C@@H](O[C@H]6C[C@@H](O)[C@@H](O[C@@H]7C[C@@H](O)[C@@H](OC)[C@H](C)O7)[C@H](C)O6)[C@@H](O)[C@H](C)O5)[C@@H](C)C[C@H](C)[C@H]4[C@]3(C)C(=O)C3=C(O)[C@@]4(C[C@@H](C)C(CO)=C[C@H]4/C=C/2C)OC3=O)C[C@]1(C)[N+](=O)[O-]`, for which the results for the MIC in assay [7], in [8] and in [9] were 16 to 32 µg/mL (≈ 13.5 to 27 µM), 1.5 to 12 µg/mL (≈ 1.26 to 10.1 µM) and 1.6 to 3.1 µg/mL (≈ 1.35 to 2.61 µM), respectively.
For `CCCC1(O)CC(=O)c2c(Cc3cc(=O)cc(O)o3)cccc2O1` (stereo unspecified), the MIC came to 2 µg/mL (≈ 6.05 µM) in [10] and 16 µg/mL (≈ 48.4 µM) in assay [11].
On to `CC1=CC[C@@H]2[C@H]3/C(O)=C/C(=O)[C@@H](C)C(=O)O[C@H](C)/C=C/C=C\[C@@H](C)[C@H]3C=C[C@H]2C1`, for which the MIC in assay [12] was 0.03 µg/mL (≈ 0.0757 µM); in assay [13], 0.06 to 0.25 µg/mL (≈ 0.151 to 0.63 µM); in assay [14] it was 0.06 to 0.25 µg/mL (≈ 0.151 to 0.63 µM); in [15], 0.06 to 0.25 µg/mL (≈ 0.151 to 0.63 µM); in assay [17] it was at most 0.25 µg/mL; in [18], 4 µg/mL (≈ 10.1 µM). In addition, in assay [16], the survival at 10 mg/kg is 90%.
`CC(C)C[C@H]1NC(=O)[C@@H](NC(=O)c2ncccc2O)[C@@H](C)OC(=O)[C@H](c2ccccc2)N(C)C(=O)[C@H](C)NC(=O)[C@H](C(C)C(C)C)N(C)C(=O)CN(C)C(=O)[C@H]2C[C@@H](O)CN2C1=O` (stereo partly drawn) [VIRIFOGRISEIN I] ({Picolinoyl(3-OH)}-T[dL][d(cisHyp)][Sar][NMeLeu(3ξ-Me)]A[NMePhg]; ester 1-C): the MIC is 1 to 2 µg/mL (≈ 1.14 to 2.28 µM) in assay [19]; 1 to 2 µg/mL (≈ 1.14 to 2.28 µM) in assay [20]; 8 µg/mL (≈ 9.1 µM) in assay [21]; 8 µg/mL (≈ 9.1 µM) in assay [22]; 16 µg/mL (≈ 18.2 µM) in [23]; 1 µg/mL (≈ 1.14 µM) in assay [24]. For the same compound, the MIC in assay [25] is 16 µg/mL (≈ 18.2 µM).
For `[O-][n+]1c2cccc(O)c2[n+]([O-])c2cccc(O)c21`, the figures for the MIC in assay [26] and in assay [27] were 0.7 µg/mL (≈ 2.87 µM) and 0.35 µg/mL (≈ 1.43 µM), respectively.
Consider `C/C(=C\C(=O)OCCCCCCCC(=O)Nc1c2sscc-2[nH]c1=O)C[C@@H]1OC[C@H](C[C@@H]2O[C@H]2[C@@H](C)[C@H](C)O)[C@@H](O)[C@H]1O`, for which the MIC in [28] is at most 0.03 µg/mL; in assay [29], 0.5 µg/mL (≈ 0.78 µM).
Take `CC[C@H](C)[C@H]1NC(=O)[C@@H](NC(=O)[C@H](C)[C@H](O)C(C)C)[C@@H](C)OC(=O)[C@H]2NC(=O)[C@@H](C(C)C)NC(=O)[C@@H](Cc3ccccc3)N(C)C(=O)[C@@H](NC1=O)c1ccc(cc1)O[C@H](C)[C@@](O)(CO)/C=C\C(=O)NCC(=O)O2`: the MIC in assay [30] amounted to 12 µg/mL (≈ 11.7 µM); in [31] it was 12 µg/mL (≈ 11.7 µM); in assay [32] it was 0.2 µg/mL (≈ 0.196 µM). The pIC50 was 5.40 to 6.70 in assay [33] and 5.70 to 6.70 in assay [34].
Regarding `C=C(NC(=O)c1csc(-c2nc3c(cc2O)-c2nc(cs2)C(=O)N[C@@H]([C@@H](C)O)C(=O)N/C(=C/C)c2nc(cs2)C(=O)N[C@H]2C[C@H](O)C(=O)OCc4cccc5[nH]c(c(C)c45)C(=O)SC[C@H](NC(=O)c4csc2n4)c2nc-3cs2)n1)C(N)=O`, the MIC in [35] is 0.03 to 0.25 µg/mL (≈ 0.0245 to 0.205 µM); in [36], 0.12 µg/mL (≈ 0.0982 µM); in assay [37], 0.12 µg/mL (≈ 0.0982 µM); in [38] it was 0.5 µg/mL (≈ 0.409 µM); in [39], 0.01 µg/mL (≈ 0.00818 µM); in [40] it was over 4 µg/mL. This compound gave an MIC in assay [41] of over 4 µg/mL.
